From patent US20080108548A1, “Food Composition For Rapidly Attenuating Inflammatory Responses” (priority 2004, published 2008) come the findings set out here.

The test system of the data set is rats subjected to hemorrhagic shock. As to the method: Using the non-lethal hemorrhagic shock model as described earlier (Luyer et al., Ann. Surg. 239:257-264, 2004; Luyer et al. Shock 21:65-71, 2004) rats were anesthetised, the femoral artery was dissected and cannulated. Mean arterial pressure (MAP) and heart rate were continuously recorded for 50 min. At the time of shock (t=0), 2.1 ml blood per 100 g body weight was taken at a rate of 1 ml/min (34-40% of total blood volume). At 45 min before induction of hemorrhagic shock, rats were subjected to vagotomy or sham vagotomy. In vagotomised animals a ventral cervical incision was made and both vagal trunks exposed. The vagus nerve was ligated at both ends using 4-0 silk suture and divided. In sham-operated animals, both vagal trunks were exposed, but the vagus nerve was not ligated and divided.
Before the experiments, 18 rats were fasted, 18 were fed with low-fat feed (6.9 en % protein, 75.4 en % carbohydrate, 16.7 en % fat) and 18 were fat with a high-fat feed according to the invention (6.9 en % protein, 40.9 en % carbohydrate, 52.2 en % fat). The low-fat and high-fat feeds were isocaloric. 3 ml was given at 18 h before hemorrhagic shock, and 0.75 ml at 2 h and 45 min before hemorrhagic by oral gavage. Fasted and high-fat fed rats underwent vagotomy or sham vagotomy. To investigate the role of CCK, six high-fat fed animas were injected i.v. with CCK-A (500 μg/kg) and CCK-B (500 μg/kg) receptor antagonists and six with control vehicle 25 min before induction of shock. […] At 90 min after hemorrhagic shock, blood was taken and segments of small bowel were harvested for determination of gut permeability. Plasma was separated by centrifugation, frozen immediately and stored until analysis.

Where [1] appears, read: high-fat fed rats given the blocker i.v. 25 min before shock, compared to high-fat controls.
[2] abbreviates: high-fat rats treated with chlorisondamine versus chlorisondamine-treated fasted rats.

For `C[N+](C)(C)CC[N+]1(C)Cc2c(Cl)c(Cl)c(Cl)c(Cl)c2C1` [chlorisondamine], under setting [1], the “bacterial translocation to distant organs” value was “increased” and the plasma endotoxin entry is “elevated”. For the setting “high-fat fed sham-vagotomised rats, i.v. 25 min before shock”, the “inhibitory effect of high-fat enteral nutrition on circulating TNF-α” value is reported as “abrogated”. Also, under setting [2], the IL-6 levels entry is reported as “comparable” and the TNF-α levels entry is listed as “comparable”. Also, under “rat, in vivo”, the MAP entry is recorded as “significantly lower” and the “additional hypotension or changes in heart rate” value was “did not cause”. Also, the “decrease in MAP associated with administration” value (rat, in vivo, iv) is 100 to 65 mm Hg.
